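Values below derive from 48-hour exposures of cells grown in 96-well plates, with endpoints linearly interpolated between the two concentrations bracketing the appropriate inhibition level. The concentration for 50% growth inhibition is given as GI50. TGI marks complete inhibition of growth.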 A value given as a limit tells only on which side of the number the result lay.

Among the test systems are CAKI-1 renal; HCT-116 colon; HOP-92 NSCLC; K-562 leukemia; NCI-H522 lung; OVCAR-5 ovarian; OVCAR-8 ovarian; RXF 393 renal; DU-145 prostate; MDA-MB-435.
Common to all, as to experiment: NCI anticancer screen, dose series, 48 h

With `COc1cccc(C(=O)N2CCc3ccccc32)c1OC`, the TGI in the assay on CAKI-1 renal, in the assay with HCT-116 colon, in the assay with HOP-92 NSCLC, in the assay on K-562 leukemia, with NCI-H522 lung and in the assay with OVCAR-5 ovarian was > 100 µM throughout. The TGI in the assay on OVCAR-8 ovarian and in the assay on RXF 393 renal was > 100 µM throughout.
Turning to `Cc1c(C(=O)c2ccccc2C(=O)O)c2ccccc2n1C`, the TGI in the assay on CAKI-1 renal, with HCT-116 colon, in the assay with K-562 leukemia, in the assay on OVCAR-5 ovarian, with OVCAR-8 ovarian and in the assay with RXF 393 renal was > 100 µM each time.
As for `COc1ccc(C(N)=O)cc1N=NN(C)C`, the TGI with CAKI-1 renal, with HCT-116 colon, in the assay on HOP-92 NSCLC, in the assay on K-562 leukemia, in the assay with NCI-H522 lung and in the assay on OVCAR-5 ovarian was > 100 µM throughout. Also, the TGI in the assay on OVCAR-8 ovarian was > 100 µM.
Turning to `CC(=O)O[C@H]1CC[C@@]2(C)C(=CC[C@H]3C4=CC=C(C(C)=O)[C@@]4(C)CCC32)C1` (some centres undefined), the TGI in the assay with CAKI-1 renal is > 100 µM; in the assay on HCT-116 colon, 36.9 µM; with HOP-92 NSCLC, > 100 µM; in the assay with NCI-H522 lung, 46.1 µM; in the assay on OVCAR-5 ovarian it was > 100 µM; in the assay with OVCAR-8 ovarian, 66.3 µM. This compound also had a TGI with RXF 393 renal of 63.7 µM.
Regarding `COC1OC(CO)C(O)C(O)C1Br` (centres undefined), the TGI with CAKI-1 renal, in the assay on HCT-116 colon, with HOP-92 NSCLC, in the assay on K-562 leukemia, with NCI-H522 lung and in the assay with OVCAR-5 ovarian was > 100 µM in each case. The TGI in the assay on OVCAR-8 ovarian and in the assay with RXF 393 renal was > 100 µM each time.
Take `COc1cc2noc(-c3ccccc3)c2cc1OC`: the TGI was 92.2 µM with CAKI-1 renal; > 100 µM in the assay on HCT-116 colon; > 100 µM in the assay on HOP-92 NSCLC; > 100 µM in the assay with K-562 leukemia; > 100 µM in the assay on NCI-H522 lung; 94 µM in the assay with OVCAR-5 ovarian. The results for the TGI in the assay on OVCAR-8 ovarian and in the assay with RXF 393 renal were > 100 µM and 73.8 µM, respectively.
For `CC(C)(C)NCc1cc(C(C)(C)C)cc(-c2ccc(Cl)cc2)c1O`, the TGI with CAKI-1 renal was determined as 25.6 µM; with DU-145 prostate it was 24.7 µM; in the assay on HCT-116 colon it was 26 µM; in the assay with HOP-92 NSCLC it was 28.3 µM; in the assay with MDA-MB-435, 25.2 µM; in the assay with NCI-H522 lung it was 24.8 µM. This compound registered a TGI in the assay with OVCAR-5 ovarian of 28.2 µM.
As to `Cc1nc2sc(C(=O)Nc3cccc4ccccc34)c(N)c2cc1C(=O)c1ccccc1`, the GI50 with CAKI-1 renal was 1.62 µM; in the assay on DU-145 prostate, 1.94 µM; in the assay with HCT-116 colon, 1.68 µM; with HOP-92 NSCLC, 6.82 µM; in the assay with K-562 leukemia, 0.93 µM; in the assay on NCI-H522 lung, 1.52 µM. The figures for the GI50 with OVCAR-5 ovarian and in the assay with OVCAR-8 ovarian were 2.27 µM and 2.15 µM, respectively. Besides, the TGI with CAKI-1 renal, with DU-145 prostate, with HCT-116 colon, with HOP-92 NSCLC, in the assay on K-562 leukemia and with NCI-H522 lung was > 50 µM each time. The TGI in the assay with OVCAR-5 ovarian and in the assay on OVCAR-8 ovarian was > 50 µM in each case.
Turning to `CC(=O)OCCOCNC(=S)N/N=C(\C)c1cnc2ccccc2n1`, the TGI in the assay on HCT-116 colon is > 100 µM; in the assay with K-562 leukemia, > 100 µM; in the assay on NCI-H522 lung, 76.7 µM; in the assay on OVCAR-5 ovarian it was 61.3 µM; in the assay on OVCAR-8 ovarian, > 100 µM; in the assay with RXF 393 renal it was > 100 µM.
Take `COc1c(C(=O)O)oc2c(OC)cccc12`: the TGI in the assay on HCT-116 colon, in the assay on HOP-92 NSCLC, with K-562 leukemia, in the assay on NCI-H522 lung, in the assay with OVCAR-5 ovarian and in the assay with OVCAR-8 ovarian was > 100 µM throughout.
For the compound `Cn1c(=O)nc2n(-c3cccc(F)c3)c3ccccc3nc-2c1=O`, the TGI in the assay on CAKI-1 renal was 96.9 µM; with HCT-116 colon it was 77.8 µM; in the assay on K-562 leukemia it was 58.1 µM; with NCI-H522 lung, 38.1 µM; in the assay on OVCAR-5 ovarian, 74.4 µM; with OVCAR-8 ovarian it was 77.1 µM. The TGI in the assay on RXF 393 renal was > 100 µM.
`CN(C)C(N)=NC#N`: the TGI with CAKI-1 renal, in the assay on HCT-116 colon, with HOP-92 NSCLC, in the assay with K-562 leukemia, in the assay with NCI-H522 lung and in the assay with OVCAR-5 ovarian was > 100 µM each time. For the same compound, the TGI in the assay on OVCAR-8 ovarian was > 100 µM; in the assay on RXF 393 renal, 74.8 µM.
On to `COc1cccc(NC(=O)CC(=O)N2N=C(N(CCC#N)c3ccccc3C)CC2c2ccccc2)c1` (centres undefined), for which the TGI in the assay on CAKI-1 renal, in the assay on HCT-116 colon, in the assay with HOP-92 NSCLC, in the assay on K-562 leukemia, in the assay with NCI-H522 lung and with OVCAR-5 ovarian was > 100 µM each time. Also, the TGI in the assay with OVCAR-8 ovarian and in the assay with RXF 393 renal was > 100 µM throughout.
For the compound `CC1(C)OC(=O)C=C([O-])O1.CC1(C)OC(=O)C=C([O-])O1.O=S(=O)([O-])c1ccc([O-])c2ncccc12.O=S(=O)([O-])c1ccc([O-])c2ncccc12.[Ti+4]`, the GI50 in the assay on CAKI-1 renal is > 100 µM; in the assay with HCT-116 colon it was 41.8 µM; with K-562 leukemia it was > 100 µM; in the assay with NCI-H522 lung, 52.4 µM; with OVCAR-5 ovarian, 25.9 µM; in the assay on OVCAR-8 ovarian, 83.4 µM. In addition, the GI50 in the assay with RXF 393 renal is > 100 µM. The TGI with CAKI-1 renal was > 100 µM; in the assay on HCT-116 colon it was > 100 µM; with K-562 leukemia, > 100 µM; in the assay with NCI-H522 lung, > 100 µM; in the assay with OVCAR-5 ovarian, 63.1 µM; in the assay on OVCAR-8 ovarian it was > 100 µM. For the same compound, the TGI in the assay on RXF 393 renal was > 100 µM.
As to `C(CCC[Te][Te]CCCCCCOC1CCCCO1)CCOC1CCCCO1` (centres undefined), the TGI was determined as 82.6 µM in the assay with CAKI-1 renal; 55.8 µM with HCT-116 colon; 30.5 µM in the assay with HOP-92 NSCLC; 29.7 µM with K-562 leukemia; 33.4 µM in the assay on OVCAR-5 ovarian; 33.9 µM in the assay with OVCAR-8 ovarian.
Take `C=C=C(CC)C(C(=O)OC)N(CC)CC` (centres undefined): the TGI in the assay on CAKI-1 renal, in the assay on HCT-116 colon, with HOP-92 NSCLC, in the assay on K-562 leukemia, in the assay with NCI-H522 lung and in the assay on OVCAR-8 ovarian was > 100 µM throughout. Moreover, the TGI in the assay on RXF 393 renal was > 100 µM.

(Values after PubChem BioAssay (NCI).)
